Measurements taken from patent publication US20210207070A1, “A CELL CULTURING PLATFORM, A CELL CULTURE SYSTEM, AND A METHOD FOR MODELING NEURAL ACTIVITY IN VITRO” (Tampere University Foundation sr, priority 2018, published 2021).

System: neurons
Assay: Activity of neurons in the closed-loop cell culturing platform, measured with electrodes in the guiding tunnels
Type: cell-based
Conditions: kainate acid added to the compartment Area 1; FIG. 5c
Excerpt: FIGS. 5a and 5b illustrate activity of neurons in a cell culturing platform according to an exemplifying and non-limiting embodiment. FIG. 5a illustrates signals measured with electrodes in the compartments of the cell culturing platform. The compartments are denoted with references ‘Area 1’, ‘Area 2’, and ‘Area 3’. As shown by black arrows in FIG. 5a, there is synchronous activity in the compartments Area 1, Area 2, and Area 3. […] of the cell culturing platform. The signals measured with electrodes in the guiding tunnels between the compartments Area 2 and Area 3 are denoted with a reference ‘2-3’, the signals measured with electrodes in the guiding tunnels between the compartments Area 1 and Area 2 are denoted with a reference ‘1-2’, and the signals measured with electrodes in the guiding tunnels between the compartments Area 3 and Area 1 are denoted with a reference ‘3-1’. As shown by black arrows in FIG. 5b, there is synchronous activity in the guiding tunnels between different pairs of the compartments.
FIG. 5c illustrates an effect of adding kainate acid to the compartment Area 1.

C=C(C)[C@H]1CN[C@H](C(=O)O)[C@H]1CC(=O)O [kainate acid]
activity measured with electrodes in the guiding tunnels between the compartments Area 1 and Area 2: increases the activity | activity measured with electrodes in the guiding tunnels between the compartments Area 2 and Area 3: substantially on the base level | activity measured with electrodes in the guiding tunnels between the compartments Area 3 and Area 1: increases the activity
